In patent US20230304018A1, “COMPOSITIONS AND METHODS FOR ENHANCING WEIGHT LOSS” (The Children's Hospital of Philadelphia, priority 2017, published 2023):
pIC50: −log10 of the molar value. Counter-ions that a name gives are not always drawn.

Experiments:
JAK1 = JAK1 (Homo sapiens, UniProt P23458); conditions: cited from earlier work
JAK2 = JAK2 (Homo sapiens, UniProt O60674); conditions: cited from earlier work
[1] = test system: panel of 38 non-JAK kinases; conditions: cited from earlier work
STAT3 = conditions: HEL cells; cited from earlier work
PKC (Rat brain) = conditions: cited from earlier work
majority of kinases = conditions: tested at 1 μM; cited from earlier work
[2] = test system: UBC-Cre-Clec16a^loxP KO mice; experiment: Tofacitinib treatment of Clec16a KO mice: fat, weight, survival; assay type: in vivo
[3] = test system: cytokines and chemokine from plasma of Clec16a KO mice; experiment: Plasma cytokines and chemokines, Mouse Cytokine Array panel; assay type: in vivo
Text: FIG. 11. […]. The representative graph is quantification of cytokines and chemokine from plasma of Control (Vehicle), KO and KO+Tofacitinib inhibitor treated mice using the Mouse Cytokine Array panel.
To gain insight in the inflammatory mechanism involved in the development, progression and pathogenesis of various autoimmune diseases, we profiled plasma from control, KO and […] KO mice for cytokines and chemokine using Mouse Cytokine Array panel.

[4] = test system: HSL, STATs, AMPK, mTOR, P62, LC3I/II and SOCS-1 expression; experiment: Immunoblot analysis on gWAT from control, KO and Tofacitinib treated mice; assay type: in vivo
Text: To examine the signaling mechanism underlying the rescue, we performed immunoblot analysis on gWAT isolated from control, KO and Tofacitinib treated mice. We evaluated HSL, STATs, AMPK, mTOR, P62, LC3I/II and SOCS-1 expression (FIG. 10C). […]. […]. Over-activation of mTOR indicates inhibition of autophagy/lipophagy as evident by significant accumulation of P62 in CLEC16A KO mice. […].

19 other tested kinases = conditions: cited from earlier work
TYK2 = TYK2 (Homo sapiens, UniProt P29597); conditions: cited from earlier work
Chain of TYK2 (P29597 whole entry): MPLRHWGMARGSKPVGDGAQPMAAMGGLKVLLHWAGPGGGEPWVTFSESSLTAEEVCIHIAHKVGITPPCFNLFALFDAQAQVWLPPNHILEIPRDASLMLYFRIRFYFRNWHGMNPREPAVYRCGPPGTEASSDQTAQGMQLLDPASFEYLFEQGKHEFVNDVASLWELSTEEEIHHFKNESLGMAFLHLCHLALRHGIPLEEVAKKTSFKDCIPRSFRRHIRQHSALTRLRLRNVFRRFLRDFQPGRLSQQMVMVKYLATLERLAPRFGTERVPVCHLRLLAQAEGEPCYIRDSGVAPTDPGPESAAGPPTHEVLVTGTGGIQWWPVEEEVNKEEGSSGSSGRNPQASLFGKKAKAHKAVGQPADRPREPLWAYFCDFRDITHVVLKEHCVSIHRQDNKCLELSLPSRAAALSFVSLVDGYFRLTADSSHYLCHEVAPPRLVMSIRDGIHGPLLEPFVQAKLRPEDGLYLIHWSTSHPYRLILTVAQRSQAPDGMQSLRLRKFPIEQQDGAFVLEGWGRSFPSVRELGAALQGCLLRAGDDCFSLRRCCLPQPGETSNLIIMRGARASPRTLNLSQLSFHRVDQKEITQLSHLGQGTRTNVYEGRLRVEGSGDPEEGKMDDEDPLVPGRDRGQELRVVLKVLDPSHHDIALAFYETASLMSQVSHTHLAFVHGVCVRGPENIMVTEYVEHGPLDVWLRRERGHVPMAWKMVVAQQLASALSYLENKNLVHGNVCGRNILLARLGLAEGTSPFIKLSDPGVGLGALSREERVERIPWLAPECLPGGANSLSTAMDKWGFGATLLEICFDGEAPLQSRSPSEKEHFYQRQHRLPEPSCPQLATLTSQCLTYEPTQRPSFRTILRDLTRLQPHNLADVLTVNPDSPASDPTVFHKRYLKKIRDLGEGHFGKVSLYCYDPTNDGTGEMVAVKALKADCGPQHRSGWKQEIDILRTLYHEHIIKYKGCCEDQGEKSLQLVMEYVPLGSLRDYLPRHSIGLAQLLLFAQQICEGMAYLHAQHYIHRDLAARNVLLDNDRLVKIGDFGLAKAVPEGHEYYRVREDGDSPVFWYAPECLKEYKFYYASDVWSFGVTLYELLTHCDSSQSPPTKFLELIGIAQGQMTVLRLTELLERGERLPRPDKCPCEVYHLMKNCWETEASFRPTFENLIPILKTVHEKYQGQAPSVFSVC

JAK3 = biological target: T1, JAK3 (Homo sapiens, UniProt P52333); conditions: cited from earlier work
T1 sequence (P52333 1-1124): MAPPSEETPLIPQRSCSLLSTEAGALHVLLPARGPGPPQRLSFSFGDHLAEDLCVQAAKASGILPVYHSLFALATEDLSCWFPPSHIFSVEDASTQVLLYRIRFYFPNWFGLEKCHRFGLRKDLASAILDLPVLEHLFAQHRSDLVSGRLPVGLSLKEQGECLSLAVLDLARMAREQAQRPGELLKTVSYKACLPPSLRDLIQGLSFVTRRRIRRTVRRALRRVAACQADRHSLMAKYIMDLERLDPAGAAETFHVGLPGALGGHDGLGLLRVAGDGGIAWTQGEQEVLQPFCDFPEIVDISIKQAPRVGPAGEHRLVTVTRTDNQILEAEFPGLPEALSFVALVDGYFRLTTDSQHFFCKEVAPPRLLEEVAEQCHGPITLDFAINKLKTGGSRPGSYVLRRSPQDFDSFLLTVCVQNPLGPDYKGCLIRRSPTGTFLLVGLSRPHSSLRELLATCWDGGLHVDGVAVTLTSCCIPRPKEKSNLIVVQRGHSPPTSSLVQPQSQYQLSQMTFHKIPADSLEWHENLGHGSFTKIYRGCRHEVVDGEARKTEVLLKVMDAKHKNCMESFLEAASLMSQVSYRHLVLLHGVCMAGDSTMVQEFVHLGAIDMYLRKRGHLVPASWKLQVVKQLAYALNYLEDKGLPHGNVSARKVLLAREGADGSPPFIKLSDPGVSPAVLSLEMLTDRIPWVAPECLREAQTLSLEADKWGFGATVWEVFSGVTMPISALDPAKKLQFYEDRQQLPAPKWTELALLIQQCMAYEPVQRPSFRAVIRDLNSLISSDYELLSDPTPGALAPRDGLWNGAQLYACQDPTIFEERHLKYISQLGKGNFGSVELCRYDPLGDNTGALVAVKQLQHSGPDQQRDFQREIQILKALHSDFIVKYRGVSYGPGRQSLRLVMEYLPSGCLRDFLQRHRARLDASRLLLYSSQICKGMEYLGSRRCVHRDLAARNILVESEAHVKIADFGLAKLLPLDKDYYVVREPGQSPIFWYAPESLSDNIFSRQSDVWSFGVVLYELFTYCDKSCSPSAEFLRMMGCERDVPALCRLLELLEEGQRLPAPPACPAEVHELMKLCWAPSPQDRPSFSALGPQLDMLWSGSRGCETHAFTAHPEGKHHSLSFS

PI3K isoforms = conditions: cited from earlier work
[5] = test system: Vps34, AKT, PDK1, p70S6K, MEK, ERK, p38, or JNK; conditions: cited from earlier work
mTOR [6] = biological target: mTOR (Homo sapiens, UniProt P42345); conditions: cited from earlier work
mTOR [7] = biological target: T2, mTOR (Homo sapiens, UniProt P42345+P62942); conditions: cited from earlier work
T2 construct: endogenous in cells; host or cells: HT-1080 cell line
T2 sequence (Q9BVC4 whole entry): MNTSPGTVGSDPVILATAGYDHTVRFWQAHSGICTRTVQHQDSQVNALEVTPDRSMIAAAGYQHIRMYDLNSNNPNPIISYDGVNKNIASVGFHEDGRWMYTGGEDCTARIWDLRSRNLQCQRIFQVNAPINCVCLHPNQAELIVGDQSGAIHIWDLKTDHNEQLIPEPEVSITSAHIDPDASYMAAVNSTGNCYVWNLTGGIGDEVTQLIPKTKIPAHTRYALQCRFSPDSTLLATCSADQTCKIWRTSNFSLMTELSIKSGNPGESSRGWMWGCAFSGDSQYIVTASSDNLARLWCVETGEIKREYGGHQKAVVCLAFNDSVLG
T2 sequence (P62942 2-108): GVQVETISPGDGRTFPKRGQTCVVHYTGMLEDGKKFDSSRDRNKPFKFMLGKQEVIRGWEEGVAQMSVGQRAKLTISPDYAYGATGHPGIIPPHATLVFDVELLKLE

RET = RET (Homo sapiens, UniProt P07949); conditions: cell-free assays; cited from earlier work
Chain of RET (P07949 29-1114, species assumed): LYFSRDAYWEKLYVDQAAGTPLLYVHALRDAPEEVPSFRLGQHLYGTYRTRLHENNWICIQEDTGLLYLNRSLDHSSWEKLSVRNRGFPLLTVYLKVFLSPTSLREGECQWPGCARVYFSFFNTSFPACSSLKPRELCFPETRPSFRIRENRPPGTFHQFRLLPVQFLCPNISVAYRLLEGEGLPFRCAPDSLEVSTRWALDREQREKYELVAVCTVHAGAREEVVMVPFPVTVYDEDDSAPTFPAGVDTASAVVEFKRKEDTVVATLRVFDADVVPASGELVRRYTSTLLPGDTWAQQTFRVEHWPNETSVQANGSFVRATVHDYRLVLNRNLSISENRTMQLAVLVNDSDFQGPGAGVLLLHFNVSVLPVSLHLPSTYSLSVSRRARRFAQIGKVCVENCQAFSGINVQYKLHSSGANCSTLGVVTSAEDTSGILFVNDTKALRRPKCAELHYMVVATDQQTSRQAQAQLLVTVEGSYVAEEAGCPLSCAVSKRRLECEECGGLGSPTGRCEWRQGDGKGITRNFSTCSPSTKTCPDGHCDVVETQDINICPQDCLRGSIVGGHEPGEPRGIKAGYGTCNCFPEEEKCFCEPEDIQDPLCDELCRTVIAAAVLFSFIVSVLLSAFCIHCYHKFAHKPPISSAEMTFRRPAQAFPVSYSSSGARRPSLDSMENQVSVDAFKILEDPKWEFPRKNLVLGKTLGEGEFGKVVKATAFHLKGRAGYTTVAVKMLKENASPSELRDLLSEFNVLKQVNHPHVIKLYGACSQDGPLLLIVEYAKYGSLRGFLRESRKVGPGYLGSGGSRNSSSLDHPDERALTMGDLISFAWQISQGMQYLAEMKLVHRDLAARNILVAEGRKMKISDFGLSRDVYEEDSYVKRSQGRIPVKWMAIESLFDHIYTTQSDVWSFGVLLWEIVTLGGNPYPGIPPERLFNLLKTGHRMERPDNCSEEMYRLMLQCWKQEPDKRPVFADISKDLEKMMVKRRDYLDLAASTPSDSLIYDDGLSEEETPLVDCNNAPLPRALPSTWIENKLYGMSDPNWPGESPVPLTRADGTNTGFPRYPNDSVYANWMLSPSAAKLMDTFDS

Flt3 = biological target: T3, Flt3 (Homo sapiens, UniProt P36888); conditions: cell-free assays; cited from earlier work
T3 sequence (P36888 27-993): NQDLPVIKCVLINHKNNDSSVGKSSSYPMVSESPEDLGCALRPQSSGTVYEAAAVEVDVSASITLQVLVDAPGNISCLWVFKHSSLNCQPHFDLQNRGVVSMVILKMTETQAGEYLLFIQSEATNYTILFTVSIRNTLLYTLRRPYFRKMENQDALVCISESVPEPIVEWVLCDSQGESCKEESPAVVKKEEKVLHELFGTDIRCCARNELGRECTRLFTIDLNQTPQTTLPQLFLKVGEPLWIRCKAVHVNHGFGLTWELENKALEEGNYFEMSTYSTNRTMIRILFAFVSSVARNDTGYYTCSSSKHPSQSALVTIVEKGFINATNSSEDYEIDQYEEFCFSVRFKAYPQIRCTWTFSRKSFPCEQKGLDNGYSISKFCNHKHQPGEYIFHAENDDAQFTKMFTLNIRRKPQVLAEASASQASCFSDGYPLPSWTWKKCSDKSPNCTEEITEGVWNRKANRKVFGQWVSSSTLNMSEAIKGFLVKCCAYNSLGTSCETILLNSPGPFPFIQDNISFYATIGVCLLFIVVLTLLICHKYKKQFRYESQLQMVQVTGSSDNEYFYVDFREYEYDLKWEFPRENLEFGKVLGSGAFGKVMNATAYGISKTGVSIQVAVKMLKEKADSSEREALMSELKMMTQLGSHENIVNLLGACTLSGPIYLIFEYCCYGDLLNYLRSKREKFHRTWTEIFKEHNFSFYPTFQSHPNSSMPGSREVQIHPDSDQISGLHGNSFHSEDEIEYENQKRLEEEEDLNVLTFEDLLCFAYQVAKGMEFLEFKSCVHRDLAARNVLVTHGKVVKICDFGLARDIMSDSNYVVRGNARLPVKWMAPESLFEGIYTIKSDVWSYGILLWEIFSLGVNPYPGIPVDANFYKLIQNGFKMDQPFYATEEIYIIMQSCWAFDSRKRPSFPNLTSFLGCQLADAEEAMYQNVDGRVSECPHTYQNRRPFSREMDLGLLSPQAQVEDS

[8] = gWAT immunoblot, CLEC16A KO mice

Chain of JAK1 (P23458 whole entry, species assumed): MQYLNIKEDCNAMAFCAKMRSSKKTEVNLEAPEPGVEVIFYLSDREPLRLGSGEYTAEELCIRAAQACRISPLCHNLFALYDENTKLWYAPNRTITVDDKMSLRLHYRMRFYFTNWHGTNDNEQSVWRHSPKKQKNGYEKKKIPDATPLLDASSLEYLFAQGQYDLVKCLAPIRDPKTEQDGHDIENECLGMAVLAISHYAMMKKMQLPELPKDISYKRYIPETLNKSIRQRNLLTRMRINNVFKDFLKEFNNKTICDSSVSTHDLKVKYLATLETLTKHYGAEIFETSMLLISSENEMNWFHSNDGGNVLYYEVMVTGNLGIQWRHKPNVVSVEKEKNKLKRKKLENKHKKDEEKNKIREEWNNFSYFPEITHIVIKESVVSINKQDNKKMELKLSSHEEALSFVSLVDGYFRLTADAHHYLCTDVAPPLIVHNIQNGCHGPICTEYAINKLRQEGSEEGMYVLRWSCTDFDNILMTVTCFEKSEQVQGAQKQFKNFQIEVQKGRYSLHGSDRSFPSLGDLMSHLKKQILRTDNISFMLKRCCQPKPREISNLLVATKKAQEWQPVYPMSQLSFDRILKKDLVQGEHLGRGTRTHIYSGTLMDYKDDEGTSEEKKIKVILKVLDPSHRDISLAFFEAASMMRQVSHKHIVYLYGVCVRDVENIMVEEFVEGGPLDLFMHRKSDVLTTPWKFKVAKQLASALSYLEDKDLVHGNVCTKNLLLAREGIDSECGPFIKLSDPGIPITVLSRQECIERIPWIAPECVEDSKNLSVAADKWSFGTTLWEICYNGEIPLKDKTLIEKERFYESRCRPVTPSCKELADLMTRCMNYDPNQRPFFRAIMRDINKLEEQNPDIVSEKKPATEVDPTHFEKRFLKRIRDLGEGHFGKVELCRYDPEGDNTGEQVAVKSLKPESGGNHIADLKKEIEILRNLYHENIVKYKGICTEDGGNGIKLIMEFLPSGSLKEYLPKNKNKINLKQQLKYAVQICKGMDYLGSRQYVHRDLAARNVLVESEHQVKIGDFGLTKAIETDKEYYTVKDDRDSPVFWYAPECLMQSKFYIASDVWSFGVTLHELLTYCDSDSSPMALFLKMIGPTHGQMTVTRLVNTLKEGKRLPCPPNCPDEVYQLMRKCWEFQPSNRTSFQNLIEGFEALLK
Chain of JAK2 (O60674 whole entry, species assumed): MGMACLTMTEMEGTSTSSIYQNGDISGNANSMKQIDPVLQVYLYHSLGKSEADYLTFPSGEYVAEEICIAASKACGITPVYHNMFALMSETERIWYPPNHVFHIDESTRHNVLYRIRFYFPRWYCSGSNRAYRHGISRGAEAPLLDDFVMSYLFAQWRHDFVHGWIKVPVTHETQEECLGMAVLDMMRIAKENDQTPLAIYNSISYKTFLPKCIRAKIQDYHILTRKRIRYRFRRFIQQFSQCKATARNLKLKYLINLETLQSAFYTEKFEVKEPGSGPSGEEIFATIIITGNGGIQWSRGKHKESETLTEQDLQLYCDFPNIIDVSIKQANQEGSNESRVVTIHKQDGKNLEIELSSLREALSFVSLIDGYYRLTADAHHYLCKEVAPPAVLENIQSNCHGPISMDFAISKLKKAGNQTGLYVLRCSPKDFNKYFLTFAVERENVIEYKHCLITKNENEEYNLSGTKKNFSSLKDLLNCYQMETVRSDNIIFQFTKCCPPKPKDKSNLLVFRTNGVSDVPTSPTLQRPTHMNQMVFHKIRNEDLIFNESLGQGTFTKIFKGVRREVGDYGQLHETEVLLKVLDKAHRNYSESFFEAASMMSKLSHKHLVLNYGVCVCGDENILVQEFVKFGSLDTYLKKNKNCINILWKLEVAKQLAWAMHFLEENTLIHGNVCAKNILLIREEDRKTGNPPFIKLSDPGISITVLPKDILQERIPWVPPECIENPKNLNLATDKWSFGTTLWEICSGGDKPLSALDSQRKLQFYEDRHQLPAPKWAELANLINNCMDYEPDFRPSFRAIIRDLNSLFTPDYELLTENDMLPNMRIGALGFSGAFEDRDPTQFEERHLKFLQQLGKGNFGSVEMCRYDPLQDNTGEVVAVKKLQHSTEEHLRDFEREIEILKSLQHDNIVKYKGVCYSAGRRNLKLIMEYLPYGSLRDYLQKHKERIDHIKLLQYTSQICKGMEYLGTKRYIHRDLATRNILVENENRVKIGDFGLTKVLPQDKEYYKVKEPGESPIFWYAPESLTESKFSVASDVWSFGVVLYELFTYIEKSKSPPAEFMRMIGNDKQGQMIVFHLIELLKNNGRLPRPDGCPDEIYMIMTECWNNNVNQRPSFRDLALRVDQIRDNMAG

COc1cc2ncnc(Nc3ccc(O)c(Br)c3)c2cc1OC [WHI-P154]
activity against JAK1 (JAK1): no activity | activity against JAK2 (JAK2): no activity

CNS(=O)(=O)C[C@H]1CC[C@H](N(C)c2ncnc3[nH]ccc23)CC1 [Oclacitinib]
inhibition of a panel of 38 non-JAK kinases [1]: does not inhibit

C[C@H](NC(=O)/C(C#N)=C/c1cccc(Br)n1)c1ccccc1 [WP1066]
pIC50 (STAT3): 5.61

CC(C)N(CCC(=O)c1ccc2ccccc2c1)Cc1ccccc1 [ZM 39923 HCl]
activity against JAK2 (JAK2): almost no activity

Cn1c2ccccc2c2c3c(c4c5ccccc5n(CCC#N)c4c21)CNC3=O [Go6976]
pIC50 (PKC (Rat brain)): 8.10

CNC(=O)c1cccc(-c2ccc3c(N4CCOC[C@@H]4C)nc(N4CCOC[C@@H]4C)nc3n2)c1 [Vistusertib]
binding to the majority of kinases (majority of kinases): no or weak binding

C[C@@H]1CCN(C(=O)CC#N)C[C@@H]1N(C)c1ncnc2[nH]ccc12 [Tofacitinib]
lipodystrophic (inflammatory) phenotype [2]: partially rescues | fat and weight loss ([2]; Tofacitinib treatment): significantly rescued | survival ([2]; Tofacitinib treatment): improves | CLEC16A knockout inflammatory phenotype (cytokines/chemokine levels) ([3]; plasma, KO+Tofacitinib treated mice, FIG. 11): attenuated | autophagy/lipophagy defect ([4]; gWAT immunoblot (P62), CLEC16A KO mice): rescues | SOCS1 expression [4, 8]: significantly reversed | p-STAT1 and p-STAT3 [4, 8]: downregulating the p-STAT1 and p-STAT3 to normal levels comparable to control | phosphorylation of ACC [4, 8]: promoted | phosphorylation of mTOR [4, 8]: reversal | upregulated p-AMPK [4, 8]: significantly reduced | phospho-HSL (p-HSL) ([4]; gWAT immunoblot, CLEC16A KO+Tofacitinib mice): significant reversal

CCS(=O)(=O)N1CCN(c2ccc(Nc3ncc(C(N)=O)c(NC4CC4)n3)cc2)CC1 [Cerdulatinib]
pIC50 (19 other tested kinases): > 6.70

CCn1c(C(=O)N(C2CC2)C2CC2)cc2c3c(ncn3C)c(Nc3cc(C)n(C)n3)nc21 [BMS-911543]
selectivity for JAK2 versus JAK1 (JAK1): ~350 fold | selectivity for JAK2 versus TYK2 (TYK2): 65 fold | selectivity for JAK2 versus JAK3 (JAK3): 75 fold

COc1ccc(-c2ccc3c(N4CCOCC4)nc(N4C[C@@H](C)O[C@@H](C)C4)nc3n2)cc1CO [KU-0063794]
effect on PI3Ks (PI3K isoforms): no effect

N#Cc1ccc(COc2ccc(-c3cccc4nc(NC(=O)C5CC5)nn34)cc2)cn1 [GLPG0634 analogue]
pIC50 (JAK1): 8.00 | pIC50 (TYK2): 6.94 | pIC50 (JAK3): 6.09 | pIC50 (JAK2): 7.55

COc1ccc(-c2cc3c(C)nc(N)nc3n([C@H]3CC[C@H](OCCO)CC3)c2=O)cn1 [PF-04691502]
activity against Vps34, AKT, PDK1, p70S6K, MEK, ERK, p38, or JNK [5]: little activity

CO[C@H]1C[C@@H]2CC[C@@H](C)[C@@](O)(O2)C(=O)C(=O)N2CCCC[C@H]2C(=O)O[C@H]([C@H](C)C[C@@H]2CC[C@@H](OCCO)[C@H](OC)C2)CC(=O)[C@H](C)/C=C(\C)[C@@H](O)[C@@H](OC)C(=O)[C@H](C)C[C@H](C)/C=C/C=C/C=C/1C [Everolimus]
pIC50 (mTOR [6]): 8.62 to 8.80

Cc1cc(Nc2nc(N[C@@H](C)c3ccc(F)cc3)c(C#N)cc2F)n[nH]1 [AZ 960]
selectivity for JAK2 versus JAK3 (JAK3): 3 fold | pIC50 (JAK2): > 8.52

CN1CCN(c2cccc(Nc3nc4c(-c5ccc(S(C)(=O)=O)cc5)cccn4n3)c2)CC1 [CEP33779]
selectivity for JAK2 versus JAK1 (JAK1): > 40 fold | selectivity for JAK2 versus TYK2 (TYK2): > 800 fold | pIC50 (JAK2): 8.74

CO[C@H]1C[C@@H]2CC[C@@H](C)[C@@](O)(O2)C(=O)C(=O)N2CCCC[C@H]2C(=O)O[C@H]([C@H](C)C[C@@H]2CC[C@@H](OP(C)(C)=O)[C@H](OC)C2)CC(=O)[C@H](C)/C=C(\C)[C@@H](O)[C@@H](OC)C(=O)[C@H](C)C[C@H](C)/C=C/C=C/C=C/1C [Ridaforolimus]
pIC50 (mTOR [7]): 9.70

Cc1cnc(Nc2ccc(N3CCN(C)CC3)cc2)nc1Nc1cccc(S(=O)(=O)NC(C)(C)C)c1 [TG101209]
pIC50 (RET): 7.77 | pIC50 (Flt3): 7.60

N#CC(=C(/N)Sc1ccccc1N)/C(C#N)=C(\N)Sc1ccccc1N [U0126]
up regulated cytokines and chemokines ([3]; plasma of U0126-treated KO mice): reversed
